Laboratory results taken from US10689339B2, “Pyrrolidine derivatives” (Hoffmann-La Roche Inc., priority 2016, dated 2020).

Target: human Cat S (Homo sapiens (Human), UniProt P25774)
Assay: Cathepsin enzyme inhibition assay (fluorogenic peptide substrate Z-Val-Val-Arg-AMC)
Assay type: biochemical
Settings: enzyme 1 nM, substrate 20 μM, pH 6.5
Procedure: Cathepsin Enzyme Inhibition Assay
Enzyme activity is measured by observing the increase in fluorescence intensity caused by cleavage of a peptide substrate containing a fluorophore whose emission is quenched in the intact peptide.
Assay buffer: 100 mM potassium phosphate pH 6.5, EDTA-Na 5 mM, Triton X-100 0.001%, DTT 5 mM.
Enzymes (all at 1 nM): human and mouse Cathepsin S, Cat K, Cat B, Cat L.
Substrate (20 μM): Z-Val-Val-Arg-AMC, except for Cat K which uses Z-Leu-Arg-AMC (both from Bachem).
AMC=7-Amino-4-Methyl-Coumarin.
Excitation 360 nm, Emission 465 nm.
Enzyme is added to the substance dilutions in 96-well microtitre plates and the reaction is started with substrate. […] IC50 are calculated by standard methods.
Inhibition of human Cat S, mouse Cat S, human Cat K, human Cat B, human Cat L and mouse Cat L have been measured separately.

Chain of human Cat S (P25774 115-331): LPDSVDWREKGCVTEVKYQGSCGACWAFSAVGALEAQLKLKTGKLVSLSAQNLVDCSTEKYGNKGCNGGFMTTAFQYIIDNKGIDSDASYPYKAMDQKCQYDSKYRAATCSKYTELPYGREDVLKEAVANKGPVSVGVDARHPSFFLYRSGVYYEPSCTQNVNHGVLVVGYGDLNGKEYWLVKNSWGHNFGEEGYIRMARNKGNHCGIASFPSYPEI

## N#CC1(NC(=O)[C@@H]2C[C@@H](S(=O)(=O)c3ccc(-n4cncn4)cc3Cl)CN2C(=O)C2(C(F)(F)F)CC2)CC1 [Example 10, (2S,4R)-4-(2-chloro-4-(1H-1,2,4-triazol-1-yl)phenylsulfonyl)-N-(1-cyanocyclopropyl)-1-(1-(trifluoromethyl)cyclopropanecarbonyl)pyrrolidine-2-carboxamide]
  IC50: 0.686 nM

## N#CC1(NC(=O)[C@@H]2C[C@@H](S(=O)(=O)c3ccc(-n4cncn4)cc3-n3cncn3)CN2C(=O)C2(C(F)(F)F)CC2)CC1 [Example 11, (2S,4R)—N-(1-cyanocyclopropyl)-4-(2,4-di(1H-1,2,4-triazol-1-yl)phenylsulfonyl)-1-(1-(trifluoromethyl)cyclopropanecarbonyl)pyrrolidine-2-carboxamide]
  IC50: 12.6 nM

## N#CC1(NC(=O)[C@@H]2C[C@@H](S(=O)(=O)c3ccc(-n4nccn4)cc3Cl)CN2C(=O)C2(C(F)(F)F)CC2)CC1 [Example 12, (2S,4R)-4-(2-chloro-4-(2H-1,2,3-triazol-2-yl)phenylsulfonyl)-N-(1-cyanocyclopropyl)-1-(1-(trifluoromethyl)cyclopropanecarbonyl)pyrrolidine-2-carboxamide]
  IC50: 0.56 nM

## N#CC1(NC(=O)[C@@H]2C[C@@H](S(=O)(=O)c3ccc(-n4ccnn4)cc3Cl)CN2C(=O)C2(C(F)(F)F)CC2)CC1 [Example 13, (2S,4R)-4-(2-chloro-4-(1H-1,2,3-triazol-1-yl)phenylsulfonyl)-N-(1-cyanocyclopropyl)-1-(1-(trifluoromethyl)cyclopropanecarbonyl)pyrrolidine-2-carboxamide]
  IC50: 0.568 nM

## Cc1ncn(-c2ccc(S(=O)(=O)[C@@H]3C[C@@H](C(=O)NC4(C#N)CC4)N(C(=O)C4(C(F)(F)F)CC4)C3)c(Cl)c2)n1 [Example 14, (2S,4R)-4-(2-chloro-4-(3-methyl-1H-1,2,4-triazol-1-yl)phenylsulfonyl)-N-(1-cyanocyclopropyl)-1-(1-(trifluoromethyl)cyclopropanecarbonyl)pyrrolidine-2-carboxamide]
  IC50: 0.529 nM

## Cc1nc(C)n(-c2ccc(S(=O)(=O)[C@@H]3C[C@@H](C(=O)NC4(C#N)CC4)N(C(=O)C4(C(F)(F)F)CC4)C3)c(Cl)c2)n1 [Example 15, (2S,4R)-4-(2-chloro-4-(3,5-dimethyl-1H-1,2,4-triazol-1-yl)phenylsulfonyl)-N-(1-cyanocyclopropyl)-1-(1-(trifluoromethyl)cyclopropanecarbonyl)pyrrolidine-2-carboxamide]
  IC50: 0.61 nM

## N#CC1(NC(=O)[C@@H]2C[C@@H](S(=O)(=O)c3ccc(-n4cnc(Cl)n4)cc3Cl)CN2C(=O)C2(C(F)(F)F)CC2)CC1 [Example 16, (2S,4R)-4-(2-chloro-4-(3-chloro-1H-1,2,4-triazol-1-yl)phenylsulfonyl)-N-(1-cyanocyclopropyl)-1-(1-(trifluoromethyl)cyclopropanecarbonyl)pyrrolidine-2-carboxamide]
  IC50: 0.563 nM

## N#CC1(NC(=O)[C@@H]2C[C@@H](S(=O)(=O)c3ccc(-n4ccc(C(F)(F)F)n4)cc3Cl)CN2C(=O)C2(C(F)(F)F)CC2)CC1 [Example 17, (2S,4R)-4-(2-chloro-4-(3-(trifluoromethyl)-1H-pyrazol-1-yl)phenylsulfonyl)-N-(1-cyanocyclopropyl)-1-(1-(trifluoromethyl)cyclopropanecarbonyl)pyrrolidine-2-carboxamide]
  IC50: 0.704 nM

## Cc1cc(C(F)(F)F)nn1-c1ccc(S(=O)(=O)[C@@H]2C[C@@H](C(=O)NC3(C#N)CC3)N(C(=O)C3(C(F)(F)F)CC3)C2)c(Cl)c1 [Example 18, (2S,4R)-4-(2-chloro-4-(5-methyl-3-(trifluoromethyl)-1H-pyrazol-1-yl)phenylsulfonyl)-N-(1-cyanocyclopropyl)-1-(1-(trifluoromethyl)cyclopropanecarbonyl)pyrrolidine-2-carboxamide]
  IC50: 0.98 nM

## Cc1cc(-n2ccc(C(F)(F)F)n2)ccc1S(=O)(=O)[C@@H]1C[C@@H](C(=O)NC2(C#N)CC2)N(C(=O)C2(C(F)(F)F)CC2)C1 [Example 19, (2S,4R)—N-(1-cyanocyclopropyl)-4-(2-methyl-4-(3-(trifluoromethyl)-1H-pyrazol-1-yl)phenylsulfonyl)-1-(1-(trifluoromethyl)cyclopropanecarbonyl)pyrrolidine-2-carboxamide]
  IC50: 1.43 nM

## N#CC1(NC(=O)[C@@H]2C[C@@H](S(=O)(=O)c3ccc(-c4ccccc4OC(F)(F)F)cc3)CN2C(=O)C2(C(F)(F)F)CC2)CC1 [Example 20, (2S,4R)—N-(1-cyanocyclopropyl)-4-(2′-(trifluoromethoxy)biphenyl-4-ylsulfonyl)-1-(1-(trifluoromethyl)cyclopropanecarbonyl)pyrrolidine-2-carboxamide]
  IC50: 5.72 nM

## N#CC1(NC(=O)[C@@H]2C[C@@H](S(=O)(=O)c3ccc(OC4CCC4)cc3Cl)CN2C(=O)C2(C(F)(F)F)CC2)CC1 [Example 21, (2S,4R)-4-(2-chloro-4-cyclobutoxyphenylsulfonyl)-N-(1-cyanocyclopropyl)-1-(1-(trifluoromethyl)cyclopropanecarbonyl)pyrrolidine-2-carboxamide]
  IC50: 1.07 nM

## Cc1cc(-c2ccccc2OC(F)(F)F)ccc1S(=O)(=O)[C@@H]1C[C@@H](C(=O)NC2(C#N)CC2)N(C(=O)C2(C(F)(F)F)CC2)C1 [Example 22, (2S,4R)—N-(1-cyanocyclopropyl)-4-(3-methyl-2′-(trifluoromethoxy)biphenyl-4-ylsulfonyl)-1-(1-(trifluoromethyl)cyclopropanecarbonyl)pyrrolidine-2-carboxamide]
  IC50: 1.14 nM

## Cc1cc(C(F)(F)F)nn1-c1ccc(S(=O)(=O)[C@@H]2C[C@@H](C(=O)NC3(C#N)CC3)N(C(=O)C3(C(F)(F)F)CC3)C2)c(C(F)(F)F)c1 [Example 23, (2S,4R)-4-[4-(5-Methyl-3-trifluoromethyl-pyrazol-1-yl)-2-trifluoromethyl-benzenesulfonyl]-1-(1-trifluoromethyl-cyclopropanecarbonyl)-pyrrolidine-2-carboxylic acid (1-cyano-cyclopropyl)-amide]
  IC50: 1.12 nM

## Cc1ncn(-c2ccc(S(=O)(=O)[C@@H]3C[C@@H](C(=O)NC4(C#N)CC4)N(C(=O)C4(C(F)(F)F)CC4)C3)c(C(F)(F)F)c2)n1 [Example 24, (2S,4R)-4-[4-(3-Methyl-[1,2,4]triazol-1-yl)-2-trifluoromethyl-benzenesulfonyl]-1-(1-trifluoromethyl-cyclopropanecarbonyl)-pyrrolidine-2-carboxylic acid (1-cyano-cyclopropyl)-amide]
  IC50: 0.772 nM

## Cc1nncn1-c1ccc(S(=O)(=O)[C@@H]2C[C@@H](C(=O)NC3(C#N)CC3)N(C(=O)C3(C(F)(F)F)CC3)C2)c(C(F)(F)F)c1 [Example 25, (2S,4R)-4-[4-(3-Methyl-[1,2,4]triazol-4-yl)-2-trifluoromethyl-benzenesulfonyl]-1-(1-trifluoromethyl-cyclopropanecarbonyl)-pyrrolidine-2-carboxylic acid (1-cyano-cyclopropyl)-amide]
  IC50: 3.27 nM

## Cc1nc(C)n(-c2ccc(S(=O)(=O)[C@@H]3C[C@@H](C(=O)NC4(C#N)CC4)N(C(=O)C4(C(F)(F)F)CC4)C3)c(C(F)(F)F)c2)n1 [Example 27, (2S,4R)-4-[4-(3,5-Dimethyl-[1,2,4]triazol-1-yl)-2-trifluoromethyl-benzenesulfonyl]-1-(1-trifluoromethyl-cyclopropanecarbonyl)-pyrrolidine-2-carboxylic acid (1-cyano-cyclopropyl)-amide]
  IC50: 0.558 nM

## Cn1nc(C(F)(F)F)cc1-c1ccc(S(=O)(=O)[C@@H]2C[C@@H](C(=O)NC3(C#N)CC3)N(C(=O)C3(C(F)(F)F)CC3)C2)cc1 [Example 28, (2S,4R)—N-(1-cyanocyclopropyl)-4-(4-(1-methyl-3-(trifluoromethyl)-1H-pyrazol-5-yl)phenylsulfonyl)-1-(1-(trifluoromethyl)cyclopropanecarbonyl)pyrrolidine-2-carboxamide]
  IC50: 2.33 nM

## Cc1cc(-c2ccccc2C=O)ccc1S(=O)(=O)[C@@H]1C[C@@H](C(=O)NC2(C#N)CC2)N(C(=O)C2(C(F)(F)F)CC2)C1 [Example 29, (2S,4R)—N-(1-cyanocyclopropyl)-4-(2′-formyl-3-methylbiphenyl-4-ylsulfonyl)-1-(1-(trifluoromethyl)cyclopropanecarbonyl)pyrrolidine-2-carboxamide]
  IC50: 0.811 nM

## Cc1ncnn1-c1ccc(S(=O)(=O)[C@@H]2C[C@@H](C(=O)NC3(C#N)CC3)N(C(=O)C3(C(F)(F)F)CC3)C2)c(C(F)(F)F)c1 [Example 31, (2S,4R)—N-(1-cyanocyclopropyl)-4-(4-(5-methyl-1H-1,2,4-triazol-1-yl)-2-(trifluoromethyl)phenylsulfonyl)-1-(1-(trifluoromethyl)cyclopropanecarbonyl) pyrrolidine-2-carboxamide]
  IC50: 0.54 nM

## Cc1cc(-c2cc(C(F)(F)F)nn2C)ccc1S(=O)(=O)[C@@H]1C[C@@H](C(=O)NC2(C#N)CC2)N(C(=O)C2(C(F)(F)F)CC2)C1 [Example 32, (2S,4R)—N-(1-cyanocyclopropyl)-4-(2-methyl-4-(1-methyl-3-(trifluoromethyl)-1H-pyrazol-5-yl)phenylsulfonyl)-1-(1-(trifluoromethyl)cyclopropanecarbonyl) pyrrolidine-2-carboxamide]
  IC50: 0.955 nM

## Cc1nc(C)n(-c2ccc(S(=O)(=O)[C@@H]3C[C@@H](C(=O)NC4(C#N)CC4)N(C(=O)C4(C(F)(F)F)CC4)C3)cc2)n1 [Example 33, (2S,4R)—N-(1-cyanocyclopropyl)-4-(4-(3,5-dimethyl-1H-1,2,4-triazol-1-yl)phenylsulfonyl)-1-(1-(trifluoromethyl)cyclopropanecarbonyl)pyrrolidine-2-carboxamide]
  IC50: 1.57 nM
